Common to all, as to test: combination Emax (second highest fraction inhibited in the dose matrix, 72 h); higher = more inhibition; extreme values may be limits of the assay
For test [1], the system named is SKN-3 (Head and Neck Carcinoma). The essentials:
(§1)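 Cell lines grown in DMEM/F12 or RPMI with 10% FBS were plated in 1536-well plates and held 24 hours at 37°C, 5% CO2 before 72 hours of exposure to two-drug dose matrices, with DMSO typically at 0.2%. CellTiter-Glo 2.0 luminescence gave viability, which was converted to inhibition. Vehicle wells were set to 0 and blank wells to 1. Combination Emax is the second-highest inhibition in the matrix, and Bliss excess is the observed combination effect minus the expected EA + EB − EA·EB, where EA and EB are the single-agent effects.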

The test system of a further test is MSTO-211H (Mesothelioma). The essentials:
as §1

Another test concerns SK-MEL-1 (Melanoma). In a few lines:
as §1

Test [2] deals with SW948 (Colorectal Carcinoma). The essentials:
as §1

The subject of test [3] is RCC10RGB (Kidney Carcinoma). In a few lines:
as §1

Test [4] has as its system HCT-116 (Colorectal Carcinoma). The essentials: as §1
The test system of the next test is Saos-2 (Osteosarcoma). In a few lines: as §1
Another test relates to MCF7 (Breast Carcinoma). The essentials:
as §1

The test system of another test is H4 (Low Grade Glioma). The essentials:
as §1

Test [5] has as its system SW48 (Colorectal Carcinoma). The essentials:
as §1

Test [6] has as its system EFM-192A (Breast Carcinoma). The essentials:
as §1

Test [7] concerns NOMO-1 (Acute Myeloid Leukemia). The essentials:
as §1

The subject of test [8] is D-283MED (Other Solid Carcinomas). The essentials:
as §1

The subject of test [9] is CAL-39 (Other Solid Carcinomas). The essentials: as §1
The subject of another test is HuO9 (Osteosarcoma). In a few lines: as §1
Test [10] deals with HCC-827 (Lung Adenocarcinoma). The essentials: as §1
For test [11], the system named is NCI-H1688 (Small Cell Lung Carcinoma). The essentials: as §1
For test [12], the system named is SK-LMS-1 (Other Solid Carcinomas). The essentials: as §1
Test [13] has as its system SLVL (B-Cell Non-Hodgkin's Lymphoma). In a few lines: as §1

`NC1(C(=O)N[C@@H](CCO)c2ccc(Cl)cc2)CCN(c2ncnc3[nH]ccc23)CC1` [Capivasertib] + CC(C)n1c(=O)n(C)c2cnc3cc(F)c(-c4ccc(OCCCN5CCCCC5)nc4)cc3c21 [AZD1390] (first compound max 10 µM, 7x7, partner max 0.3 µM): the “combination Emax” value came to 0.2 in test [1]; 0.213 in the test with MSTO-211H (Mesothelioma); 0.226 with SK-MEL-1 (Melanoma); 0.575 in test [2]; 0.2 in test [3]; 0.373 in test [4]. For the same compound, the “combination Emax” value stood at 0.473 in the test with Saos-2 (Osteosarcoma); 0.459 in the test with MCF7 (Breast Carcinoma); 0.515 in the test on H4 (Low Grade Glioma); 0.497 in test [5]; 0.402 in test [6]; 0.429 in test [7]. Moreover, the “combination Emax” value in [8] came to 0.475; in test [9], 0.457; with HuO9 (Osteosarcoma) it was 0.509; in test [10] it was 0.322; in [11] it was 0.296; in [12], 0.324. Further, in test [13], the “combination Emax” value is 0.637.

On to `Cn1cnc2c(F)c(Nc3ccc(Br)cc3Cl)c(C(=O)NOCCO)cc21` [Selumetinib] + C=CCn1c(=O)c2cnc(Nc3ccc(N4CCN(C)CC4)cc3)nc2n1-c1cccc(C(C)(C)O)n1 [AZD1775] (first compound max 10 µM, partner max 1 µM), for which the “combination Emax” value amounted to 0.477 in [1]; 0.442 in the test with MSTO-211H (Mesothelioma); 0.896 with SK-MEL-1 (Melanoma); 0.79 in test [2]; 0.591 in test [3]; 0.785 in [4]. Moreover, the “combination Emax” value was found to be 0.551 with Saos-2 (Osteosarcoma); 0.247 in the test on MCF7 (Breast Carcinoma); 0.739 in the test with H4 (Low Grade Glioma); 0.433 in test [5]; 0.248 in test [6]; 0.999 in [7]. Moreover, the “combination Emax” value stood at 0.956 in [8]; 0.726 in [9]; 0.747 with HuO9 (Osteosarcoma); 0.377 in test [10]; 0.525 in test [11]; 0.599 in test [12]. Further, the “combination Emax” value in test [13] turned out to be 0.797.

Turning to `Cn1cnc2c(F)c(Nc3ccc(Br)cc3Cl)c(C(=O)NOCCO)cc21` [Selumetinib] + C[C@@H]1COCCN1C2=NC(=NC(=C2)C3(CC3)[S@](=N)(=O)C)C4=C5C=CNC5=NC=C4 [AZD6738] (first compound max 10 µM, 7x7, partner max 10 µM), the “combination Emax” value in [1] came to 0.457; with MSTO-211H (Mesothelioma), 0.396; with SK-MEL-1 (Melanoma), 0.922; in test [2], 0.732; in test [3] it was 0.513; in test [4], 0.8. Moreover, the “combination Emax” value came to 0.456 in the test on Saos-2 (Osteosarcoma); 0.468 with MCF7 (Breast Carcinoma); 0.672 with H4 (Low Grade Glioma); 0.723 in test [5]; 0.135 in test [6]; 0.994 in test [7]. For the same compound, the “combination Emax” value in test [8] was found to be 0.988; in test [9] it was 0.697; with HuO9 (Osteosarcoma), 0.726; in [10], 0.413; in test [11] it was 0.165; in test [12], 0.496. The “combination Emax” value in [13] worked out at 0.671.

Consider `NC1(C(=O)N[C@@H](CCO)c2ccc(Cl)cc2)CCN(c2ncnc3[nH]ccc23)CC1` [Capivasertib] + Cn1cnc2c(F)c(Nc3ccc(Br)cc3Cl)c(C(=O)NOCCO)cc21 [Selumetinib] (first compound max 10 µM, 7x7, partner max 10 µM), for which the “combination Emax” value in test [1] came out at 0.426; in the test with MSTO-211H (Mesothelioma), 0.379; with SK-MEL-1 (Melanoma), 0.874; in test [2] it was 0.829; in test [3], 0.483; in [4], 0.877. Besides, the “combination Emax” value with Saos-2 (Osteosarcoma) came to 0.46; in the test with MCF7 (Breast Carcinoma), 0.519; with H4 (Low Grade Glioma), 0.61; in test [5] it was 0.556; in test [6] it was 0.436; in [7], 0.948. In addition, the “combination Emax” value worked out at 0.548 in test [8]; 0.762 in test [9]; 0.509 in the test with HuO9 (Osteosarcoma); 0.6 in [10]; 0.372 in test [11]; 0.668 in test [12]. For the same compound, in test [13], the “combination Emax” value is 0.806.

As for `CS(=O)(=O)CCNCc1ccc(-c2ccc3ncnc(Nc4ccc(OCc5cccc(F)c5)c(Cl)c4)c3c2)o1` [Lapatinib] + Cn1cnc2c(F)c(Nc3ccc(Br)cc3Cl)c(C(=O)NOCCO)cc21 [Selumetinib] (first compound max 10 µM, 7x7, partner max 10 µM), the “combination Emax” value with MSTO-211H (Mesothelioma) was 0.337; in the test with SK-MEL-1 (Melanoma), 0.838; in test [2], 0.774; in test [4] it was 0.775; with Saos-2 (Osteosarcoma), 0.289; with H4 (Low Grade Glioma) it was 0.27. The “combination Emax” value stood at 0.802 in [5]; 0.661 in test [7]; 0.935 in [8]; 1 in test [9]; 0.402 in [12]; 0.432 in test [13].

For the compound `COc1nnc2ccc(N3CCC(c4ccc(OCCN5CCN(C)C(=O)[C@H]5C)cc4)CC3)nn12` [AZD5153] + CCN(CCO)CCCOc1ccc2c(Nc3cc(CC(=O)Nc4cccc(F)c4)[nH]n3)ncnc2c1 [AZD2811] (first compound max 1 µM, 7x7, partner max 1 µM), the “combination Emax” value in [1] came to 0.462; in the test on MSTO-211H (Mesothelioma), 0.26; with SK-MEL-1 (Melanoma), 0.556; in [2], 0.65; in test [3] it was 0.565; in [4], 0.759. The “combination Emax” value in the test with Saos-2 (Osteosarcoma) turned out to be 0.601; in the test on MCF7 (Breast Carcinoma), 0.653; with H4 (Low Grade Glioma), 0.668; in test [5], 0.912; in test [6] it was 0.361; in test [7] it was 0.961. The “combination Emax” value came out at 0.9 in test [8]; 0.691 in test [9]; 0.673 in the test on HuO9 (Osteosarcoma); 0.43 in test [10]; 0.389 in test [11]; 0.548 in test [12]. Besides, the “combination Emax” value in [13] was 0.696.
